The results in this text go back to PubChem BioAssay (NCI).

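Five compound concentrations were applied to cells in 96-well plates for 48 hours; endpoints were derived by simple linear interpolation of the resulting dose-response curve. GI50 marks 50% less growth. At the TGI there is no net growth.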 Bounds are passed on as bounds.

Test systems include K-562 leukemia; SW-620 colon; TK-10 renal; HCT-15 colon; HT29 colon; SN12C renal; NCI-H23 lung; 786-0 renal; RXF 393 renal; CAKI-1 renal.
Holding throughout (test): DTP human tumour cell line panel, 48 h

The TGI is the concentration giving total growth inhibition. The low end stands for more potent growth arrest, the high end for less potent growth arrest. Turning to `O=C(CCCl)NNC1=NCCCN1`, the total growth inhibition concentration (TGI) in the test with K-562 leukemia, in the test with SW-620 colon, in the test with TK-10 renal, in the test with HCT-15 colon, with HT29 colon and in the test on SN12C renal was greater than 100 µM each time. Also, the TGI in the test on NCI-H23 lung, in the test with 786-0 renal and in the test with RXF 393 renal was greater than 100 µM throughout.

Take `COC(=O)/C=C/C1(O)C=CC(=O)C=C1`: the TGI in the test with K-562 leukemia is greater than 100 µM; in the test on TK-10 renal, 16.4 µM; with HCT-15 colon, greater than 31.9 µM; in the test on SN12C renal, 3.32 µM; in the test on NCI-H23 lung, 17.5 µM; in the test with 786-0 renal it was 5.36 µM. In addition, the TGI with RXF 393 renal was greater than 25.1 µM; in the test with CAKI-1 renal, 4.46 µM.

Regarding `O=c1cn[nH]c(=S)n1/N=C/c1c[nH]c2ccccc12`, the TGI in the test on K-562 leukemia, in the test on SW-620 colon, with HCT-15 colon, in the test on HT29 colon, in the test on 786-0 renal and with CAKI-1 renal was greater than 100 µM each time.

Turning to `COc1ccc(C2CC3(c4ccccc4)ON=C(c4ccccc4)N3c3ccccc3S2)cc1` (stereo not drawn), the total growth inhibition concentration (TGI) with SW-620 colon, with TK-10 renal, with HCT-15 colon, in the test with HT29 colon, with SN12C renal and in the test with NCI-H23 lung was greater than 100 µM each time. Besides, the TGI in the test with 786-0 renal, in the test with RXF 393 renal and with CAKI-1 renal was greater than 100 µM in each case.

What is called GI50 is the concentration giving 50% growth inhibition. As to `CN1CCN(Cc2ccc(NC(=O)c3cccc(C#Cc4cnc(N)c5ncccc45)c3F)cc2C(F)(F)F)CC1`, the concentration for 50% growth inhibition (GI50) with K-562 leukemia was 0.005 µM; in the test on SW-620 colon, 0.62 µM; with TK-10 renal it was 5.67 µM; in the test with HCT-15 colon it was 0.546 µM; with HT29 colon it was 0.677 µM; with SN12C renal, 0.817 µM. For the same compound, the results for the GI50 in the test on NCI-H23 lung, in the test with RXF 393 renal and in the test on CAKI-1 renal were 3.99 µM, 0.613 µM and 0.53 µM, respectively. Further, the TGI with K-562 leukemia was 0.733 µM; in the test with SW-620 colon, 1.71 µM; in the test on TK-10 renal, 12.9 µM; in the test on HCT-15 colon, 1.35 µM; in the test with HT29 colon, 1.53 µM; with SN12C renal, 1.59 µM. Also, the TGI was determined as 16.4 µM with NCI-H23 lung, 1.3 µM with RXF 393 renal and 6.34 µM in the test on CAKI-1 renal.

As to `CCCCCC/C=C1\CCC(CN2CCOCC2)C1=O` (stereo not drawn), the TGI is 16.4 µM in the test on K-562 leukemia; 26.7 µM in the test with SW-620 colon; 26.4 µM in the test with TK-10 renal; 25.9 µM with HCT-15 colon; 34.2 µM with HT29 colon; 33.4 µM in the test with SN12C renal. Besides, the TGI in the test with NCI-H23 lung was 31.7 µM; in the test on 786-0 renal, 8.75 µM; in the test on CAKI-1 renal, 31.4 µM.

Turning to `O=C(Nc1cccc2c1[nH]c1c(-c3ccccc3)nccc12)c1ccccc1[N+](=O)[O-]`, the concentration for total growth inhibition (TGI) is greater than 100 µM in the test with K-562 leukemia; greater than 100 µM in the test with SW-620 colon; greater than 100 µM with TK-10 renal; 41.2 µM with HCT-15 colon; greater than 100 µM in the test with HT29 colon; greater than 100 µM in the test on SN12C renal. The results for the total growth inhibition concentration (TGI) with NCI-H23 lung, in the test on RXF 393 renal and with CAKI-1 renal were greater than 100 µM, 90.2 µM and 70.4 µM, respectively.

Consider `O=C1CSC(c2c[nH]c3ccccc23)N1c1ccccc1[N+](=O)[O-]` (stereo not drawn), for which the TGI in the test on K-562 leukemia, with SW-620 colon, in the test with TK-10 renal, with HCT-15 colon, in the test on HT29 colon and in the test with SN12C renal was greater than 100 µM in each case. The TGI in the test with NCI-H23 lung and in the test on 786-0 renal was greater than 100 µM each time.

Consider `COc1ccccc1/C=C1\NC(=S)N(/C=C2\C(=O)Oc3ccccc3C2=O)C1=O`, for which the TGI in the test with SW-620 colon, with TK-10 renal, in the test on HCT-15 colon, in the test on HT29 colon, with SN12C renal and in the test on NCI-H23 lung was greater than 100 µM throughout. Besides, the concentration for total growth inhibition (TGI) in the test with 786-0 renal, in the test on RXF 393 renal and in the test on CAKI-1 renal was greater than 100 µM each time.

Turning to `CC1C(OC2O[C@@H]3O[C@@]4(C)CC[C@H]5[C@H](C)CC[C@@H](C2C)[C@@]35O4)O[C@@H]2O[C@@]3(C)CC[C@H]4[C@H](C)CC[C@@H]1[C@@]24O3` (stereo partly drawn), the TGI in the test with K-562 leukemia, with SW-620 colon, in the test on TK-10 renal, with HCT-15 colon, in the test with HT29 colon and in the test on SN12C renal was greater than 50 µM each time. Also, the TGI with NCI-H23 lung, with 786-0 renal and in the test with CAKI-1 renal was greater than 50 µM in each case.

As for `CC(C)(CCCCC(C)(C)[N+](C)(C)C)[N+](C)(C)C`, the total growth inhibition concentration (TGI) in the test with K-562 leukemia, in the test on SW-620 colon, in the test on TK-10 renal, with HCT-15 colon, in the test on HT29 colon and in the test with SN12C renal was greater than 100 µM throughout. The same compound displayed a total growth inhibition concentration (TGI) in the test on 786-0 renal greater than 100 µM.

Regarding `OCCOc1ccccc2cccc1-2`, the TGI in the test with K-562 leukemia, in the test with SW-620 colon, in the test on TK-10 renal, in the test with HCT-15 colon, with HT29 colon and with SN12C renal was greater than 100 µM in each case. For the same compound, the concentration for total growth inhibition (TGI) with NCI-H23 lung, with 786-0 renal and with CAKI-1 renal was greater than 100 µM throughout.

Consider `CSc1nc2c(ncn2C2OCC(O)C(O)C2O)c(=O)n1C` (stereo not drawn), for which the concentration for total growth inhibition (TGI) with K-562 leukemia, with SW-620 colon, in the test on HCT-15 colon, in the test on HT29 colon, in the test on SN12C renal and in the test on NCI-H23 lung was greater than 100 µM throughout. In the test on RXF 393 renal, this compound gave a TGI greater than 100 µM.

`C1CC[C@H]2SSC3CCCC[C@H]3SSC2C1` (stereo partly drawn): the total growth inhibition concentration (TGI) in the test with K-562 leukemia, in the test with SW-620 colon, in the test with TK-10 renal, in the test on HCT-15 colon, in the test on HT29 colon and with SN12C renal was greater than 100 µM each time. For the same compound, the TGI in the test with NCI-H23 lung and with 786-0 renal was greater than 100 µM in each case.

In the case of `C/C(=N\Nc1nc2cccnc2s1)c1ccccn1`, the TGI is greater than 100 µM with K-562 leukemia; greater than 100 µM in the test with SW-620 colon; 21.5 µM in the test with HCT-15 colon; greater than 100 µM with SN12C renal; 0.949 µM in the test on NCI-H23 lung; greater than 100 µM in the test with 786-0 renal. For the same compound, the values for the total growth inhibition concentration (TGI) with RXF 393 renal and in the test with CAKI-1 renal were 19.9 µM and 12.2 µM, respectively.
